From patent US5525625A (priority 1995, dated 1996)

Columns and labels:
MAP kinase [1] = experiment: Whole cell MAP kinase assay, PC-12 cells stimulated with NGF; format: cell-based; details: Rattus norvegicus, read-out: IC50, activation of MAP kinase in whole cells
Protocol: (§1) To determine if compounds were able to block activation of MAP kinase in whole cells, the following protocol was used: Cells were plated in multi-well plates and grown to confluence. Cells were then serum-deprived overnight. Cells were exposed to the desired concentrations of compound or vehicle (DMSO) for 30 minutes, followed by addition of a growth factor, e.g., PDGF (100 ng/mL). After a 5-minute treatment with the growth factor, cells were washed with PBS, then lysed in a buffer consisting of 70 mM NaCl, 10 mM HEPES (pH 7.4), 50 mM glycerol phosphate, and 1% Triton X-100. Lysates were clarified by centrifugation at 13,000×g for 10 minutes. Five micrograms of the resulting supernatants were incubated with 10 μg microtubule associated protein-2 (Map2) for 15 minutes at 30° C. in a final volume of 25 μL containing 50 mM Tris (pH 7.4), 10 mM MgCl2, 2 mM EGTA and 30 μM [γ-^32 P]ATP. Reactions were terminated by addition of Laemmli sample buffer. Phosphorylated Map2 was resolved on 7.5% acrylamide gels and incorporated radioactivity determined by autoradiography and subsequent excision of the bands followed by scintillation counting.

MAP kinase [2] = experiment: Whole cell MAP kinase assay, 3T3-L1 cells stimulated with insulin; format: cell-based, murine
Protocol: as §1, with “Cells” for “To determine if compounds were able to block activation of MAP kinase in whole cells, the following protocol was used: Cells were plated in multi-well plates and grown to confluence. Cells”, “buffer.” for “buffer. Phosphorylated Map2 was resolved on 7.5% acrylamide gels and incorporated radioactivity determined by autoradiography and subsequent excision of the bands followed by scintillation counting.”

Balb 3T3 = experiment: 3H-Thymidine incorporation, PDGF-stimulated, Balb 3T3; format: cell-based; details: Mus musculus; Balb 3T3, PDGF-stimulated
Protocol: (§2) Cells were plated in multi-well plates and grown to near confluence. The media was then removed and replaced with growth media containing 1% bovine serum albumin. After 24-hour serum starvation, compounds and specific growth factors were added and incubations continued for an additional 24 hours. During the final 2 hours, 3H-thymidine was added to the medium. To terminate the incubations, the medium was removed and cell layers washed twice with ice-cold phosphate-buffered saline. After the final wash, ice-cold 5% trichloroacetic acid was added and the cells incubated for 15 minutes at room temperature. The trichloro-acetic acid solution was then removed and the cell layer washed three times with distilled water. After the final wash, the cell layer was solubilized by addition of 2% sodium dodecylsulfate. Radioactivity in this solution was determined by scintillation counting.

K-Balb 3T3 = experiment: 3H-Thymidine incorporation, PDGF-stimulated, K-Balb 3T3; format: cell-based; details: K-Balb 3T3, PDGF-stimulated
Protocol: as §2

3T3-L1 adipocyte cells [3] = experiment: Insulin stimulated uptake of radiolabeled 2-deoxyglucose; format: cell-based, murine; details: 10 μM concentration
3T3-L1 adipocyte cells [4] = experiment: Insulin-stimulated synthesis of lipid; format: cell-based, murine; details: 10 μM concentration
3T3-L1 adipocyte cells [5] = experiment: Insulin-stimulated synthesis of glycogen; format: cell-based, murine; details: 10 μM concentration
K-Ras/Balb [6] = experiment: Growth in soft-agar, K-Ras/Balb; format: cell-based; details: Mus musculus, anchorage independent (soft agar clonogenicity)
Protocol: (§3) Cells were seeded into 35-mm dishes at 5 to 10,000 cells/dish using growth medium containing 0.3% agar. After chilling to solidify the agar, cells were transfered to a 37° C. incubator. After 7 to 10 days growth, visible colonies were manually enumerated with the aid of a dissecting microscope.

K-Ras/NRK [7] = experiment: Growth in soft-agar, K-Ras/NRK; format: cell-based; details: anchorage independent (soft agar clonogenicity)
Protocol: as §3

RSV/RAT-1 [8] = experiment: Growth in soft-agar, RSV/RAT-1; format: cell-based; details: read-out: Agar Growth IC50
Protocol: as §3

EGFR/Swiss 3T3 [9] = experiment: Growth in soft-agar, EGFR/Swiss 3T3; format: cell-based; details: EGFR/Swiss 3T3, anchorage independent (soft agar clonogenicity)
Protocol: as §3

K562 [10] = experiment: Growth in soft-agar, K562; format: cell-based; details: Homo sapiens; K562, anchorage independent (soft agar clonogenicity)
Protocol: as §3

v-Raf/3Y1 [11] = experiment: Growth in soft-agar, v-Raf/3Y1; format: cell-based; details: v-Raf/3Y1, anchorage independent (soft agar clonogenicity)
Protocol: as §3

K-Ras/Balb [12] = experiment: Monolayer growth, K-Ras/Balb; format: cell-based; details: Mus musculus, anchorage dependent
Protocol: (§4) Cells were plated into multi-well plates at 10 to 20,000 cells/mL. Forty-eight hours after seeding, compounds were added to the cell growth medium and incubation was continued for 2 additional days. Cells were then removed from the wells by incubation with trypsin and enumerated with a Coulter counter. Growth in soft-agar.

K-Ras/NRK [13] = experiment: Monolayer growth, K-Ras/NRK; format: cell-based; details: anchorage dependent
Protocol: as §4

RSV/RAT-1 [14] = experiment: Monolayer growth, RSV/RAT-1; format: cell-based; details: read-out: Monolayer Growth IC50
Protocol: as §4

EGFR/Swiss 3T3 [15] = experiment: Monolayer growth, EGFR/Swiss 3T3; format: cell-based; details: EGFR/Swiss 3T3, anchorage dependent
Protocol: as §4

K562 [16] = experiment: Monolayer growth, K562; format: cell-based; details: Homo sapiens; K562, anchorage dependent
Protocol: as §4

v-Raf/3Y1 [17] = experiment: Monolayer growth, v-Raf/3Y1; format: cell-based; details: v-Raf/3Y1, anchorage dependent
Protocol: as §4

MEK [18] = biological target: T1, MEK (Homo sapiens, UniProt Q02750); format: biochemical; details: order of addition experiments
T1 sequence (Q02750 whole entry, the tested form may be a part): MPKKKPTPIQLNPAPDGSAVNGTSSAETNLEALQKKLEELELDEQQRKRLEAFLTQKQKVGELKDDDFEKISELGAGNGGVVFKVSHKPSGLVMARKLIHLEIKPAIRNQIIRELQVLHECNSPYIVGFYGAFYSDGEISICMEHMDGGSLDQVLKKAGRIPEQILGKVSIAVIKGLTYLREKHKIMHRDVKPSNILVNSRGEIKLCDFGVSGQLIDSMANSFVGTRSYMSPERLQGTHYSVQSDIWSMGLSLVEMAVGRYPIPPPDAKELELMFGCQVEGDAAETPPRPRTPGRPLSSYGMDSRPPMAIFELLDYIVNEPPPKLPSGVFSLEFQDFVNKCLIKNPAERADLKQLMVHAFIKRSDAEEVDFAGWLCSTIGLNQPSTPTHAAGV
Protocol: Incorporation of ^32 P into myelin basic protein (MBP) was assayed in the presence of a glutathione S-transferase fusion protein containing p44MAP kinase (GST-MAPK) and a glutathione S-transferase fusion protein containing p45MEK (GST-MEK). […] Compounds were assessed at 10 μM for ability to inhibit incorporation of ^32 P.
To ascertain whether compounds were inhibiting GST-MEK or GST MAPK, two additional protocols were employed. In the first protocol, compounds were added to tubes containing GST-MEK, followed by addition of GST-MAPK, MBP and [γ-^32 P]ATP. In the second protocol, compounds were added to tubes containing both GST-MEK and GST-MAPK, followed by MBP and [γ-^32 P]ATP.

MAP kinase [19] = experiment: In vitro MAP kinase assay; format: biochemical; details: 50 μM concentration
Protocol: Inhibitory activity was also confirmed in direct assays. For MAP kinase, 1 μg GST-MAPK was incubated with 40 μg MBP for 15 minutes at 30° C. in a final volume of 50 μL containing 50 mM Tris (pH 7.5), 10 μM MgCl2, 2 μM EGTA, and 10 μM [γ-^32 P]ATP. The reaction was stopped by addition of Laemmli SDS sample buffer and phosphorylated MBP resolved by electrophoresis on a 10% polyacrylamide gel. Radioactivity incorporated into MBP was determined by autoradiography, and subsequently by excision of the bands followed by scintillation counting.

[20] = tested on: Protein kinase C (rat brain homogenate c-PKC mixture); experiment: Kinase selectivity: Protein kinase C; format: biochemical; details: 50 μM concentration
v-Src = v-Src (Rous sarcoma virus (strain Schmidt-Ruppin A), UniProt P00524); experiment: Kinase selectivity: v-Src; format: biochemical; details: 50 μM concentration
Sequence of v-Src (P00524 2-526): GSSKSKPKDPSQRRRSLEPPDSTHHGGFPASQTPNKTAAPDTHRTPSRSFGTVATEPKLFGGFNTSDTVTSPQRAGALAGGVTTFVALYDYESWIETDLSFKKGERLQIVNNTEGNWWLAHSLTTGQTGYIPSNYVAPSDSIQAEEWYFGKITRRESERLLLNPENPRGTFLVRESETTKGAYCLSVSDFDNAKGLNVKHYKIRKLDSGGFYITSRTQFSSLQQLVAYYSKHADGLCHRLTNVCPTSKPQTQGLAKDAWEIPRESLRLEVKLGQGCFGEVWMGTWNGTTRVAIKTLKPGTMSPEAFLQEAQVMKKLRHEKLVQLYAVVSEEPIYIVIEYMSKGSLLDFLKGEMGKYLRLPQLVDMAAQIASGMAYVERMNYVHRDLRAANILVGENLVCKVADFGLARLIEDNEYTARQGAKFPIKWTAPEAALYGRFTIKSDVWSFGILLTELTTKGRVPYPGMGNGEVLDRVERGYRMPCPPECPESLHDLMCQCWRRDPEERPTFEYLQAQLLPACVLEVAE

EGFR Tyrosine kinase = EGFR Tyrosine kinase (Homo sapiens, UniProt P00533); experiment: Kinase selectivity: EGFR Tyrosine kinase; format: biochemical; details: 50 μM concentration
Sequence of EGFR Tyrosine kinase (P00533 25-1210): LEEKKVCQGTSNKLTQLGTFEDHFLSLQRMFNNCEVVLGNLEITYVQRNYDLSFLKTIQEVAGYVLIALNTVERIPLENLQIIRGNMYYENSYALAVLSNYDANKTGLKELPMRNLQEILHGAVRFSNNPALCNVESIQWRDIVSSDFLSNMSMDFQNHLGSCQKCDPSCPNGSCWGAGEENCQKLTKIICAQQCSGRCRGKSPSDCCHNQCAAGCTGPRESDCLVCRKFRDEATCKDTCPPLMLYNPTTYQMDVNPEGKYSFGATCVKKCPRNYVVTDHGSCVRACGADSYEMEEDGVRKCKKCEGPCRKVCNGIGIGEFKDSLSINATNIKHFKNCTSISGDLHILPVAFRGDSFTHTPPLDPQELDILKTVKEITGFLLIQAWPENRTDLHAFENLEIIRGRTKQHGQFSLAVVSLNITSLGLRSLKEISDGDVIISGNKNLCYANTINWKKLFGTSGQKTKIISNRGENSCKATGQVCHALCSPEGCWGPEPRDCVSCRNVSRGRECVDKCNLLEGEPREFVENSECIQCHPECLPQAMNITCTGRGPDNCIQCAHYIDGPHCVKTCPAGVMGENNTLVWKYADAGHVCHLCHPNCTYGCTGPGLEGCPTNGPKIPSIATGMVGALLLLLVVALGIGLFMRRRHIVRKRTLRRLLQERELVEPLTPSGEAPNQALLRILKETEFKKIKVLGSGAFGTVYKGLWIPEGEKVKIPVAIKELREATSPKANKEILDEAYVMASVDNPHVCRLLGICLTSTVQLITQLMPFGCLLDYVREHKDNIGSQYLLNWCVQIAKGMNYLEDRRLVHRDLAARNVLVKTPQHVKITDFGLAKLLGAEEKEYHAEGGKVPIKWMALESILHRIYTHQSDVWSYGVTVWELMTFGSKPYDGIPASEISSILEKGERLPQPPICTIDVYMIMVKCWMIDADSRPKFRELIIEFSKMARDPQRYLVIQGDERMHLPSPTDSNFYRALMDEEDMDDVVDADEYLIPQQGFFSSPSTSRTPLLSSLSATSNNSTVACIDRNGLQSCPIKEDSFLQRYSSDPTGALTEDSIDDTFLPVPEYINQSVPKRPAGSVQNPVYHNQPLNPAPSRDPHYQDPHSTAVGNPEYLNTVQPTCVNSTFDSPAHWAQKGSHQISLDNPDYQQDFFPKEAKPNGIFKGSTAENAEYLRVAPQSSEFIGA

[21] = biological target: NGFR (trk-A) Tyrosine kinase (Homo sapiens, UniProt P04629); experiment: Kinase selectivity: NGFR (trk-A) Tyrosine kinase; format: biochemical; details: 50 μM concentration
Sequence of NGFR (trk-A) Tyrosine kinase (P04629 33-796, species assumed): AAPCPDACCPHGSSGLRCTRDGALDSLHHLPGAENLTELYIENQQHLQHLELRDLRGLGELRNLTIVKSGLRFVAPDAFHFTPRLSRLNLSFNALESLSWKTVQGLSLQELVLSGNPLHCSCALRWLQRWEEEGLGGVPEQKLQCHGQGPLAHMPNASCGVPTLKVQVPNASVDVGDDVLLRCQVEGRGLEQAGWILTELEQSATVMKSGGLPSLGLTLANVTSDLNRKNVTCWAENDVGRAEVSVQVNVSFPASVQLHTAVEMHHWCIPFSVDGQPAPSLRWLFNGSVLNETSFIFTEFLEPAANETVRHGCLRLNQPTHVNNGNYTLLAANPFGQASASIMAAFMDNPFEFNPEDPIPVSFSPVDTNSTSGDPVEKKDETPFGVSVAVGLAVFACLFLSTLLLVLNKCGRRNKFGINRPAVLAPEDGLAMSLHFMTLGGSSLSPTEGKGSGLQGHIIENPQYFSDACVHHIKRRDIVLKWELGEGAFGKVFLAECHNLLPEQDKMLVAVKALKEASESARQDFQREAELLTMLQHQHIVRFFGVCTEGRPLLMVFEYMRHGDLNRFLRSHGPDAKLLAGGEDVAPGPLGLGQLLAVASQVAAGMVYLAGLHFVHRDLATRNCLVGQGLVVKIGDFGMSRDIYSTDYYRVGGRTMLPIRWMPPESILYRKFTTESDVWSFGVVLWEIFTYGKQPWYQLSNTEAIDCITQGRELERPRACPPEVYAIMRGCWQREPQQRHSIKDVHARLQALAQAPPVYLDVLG

PDGFRβ Tyrosine kinase = PDGFRβ Tyrosine kinase (Homo sapiens, UniProt P09619); experiment: Kinase selectivity: PDGFRβ Tyrosine kinase; format: biochemical; details: 50 μM concentration
Sequence of PDGFRβ Tyrosine kinase (P09619 33-1106): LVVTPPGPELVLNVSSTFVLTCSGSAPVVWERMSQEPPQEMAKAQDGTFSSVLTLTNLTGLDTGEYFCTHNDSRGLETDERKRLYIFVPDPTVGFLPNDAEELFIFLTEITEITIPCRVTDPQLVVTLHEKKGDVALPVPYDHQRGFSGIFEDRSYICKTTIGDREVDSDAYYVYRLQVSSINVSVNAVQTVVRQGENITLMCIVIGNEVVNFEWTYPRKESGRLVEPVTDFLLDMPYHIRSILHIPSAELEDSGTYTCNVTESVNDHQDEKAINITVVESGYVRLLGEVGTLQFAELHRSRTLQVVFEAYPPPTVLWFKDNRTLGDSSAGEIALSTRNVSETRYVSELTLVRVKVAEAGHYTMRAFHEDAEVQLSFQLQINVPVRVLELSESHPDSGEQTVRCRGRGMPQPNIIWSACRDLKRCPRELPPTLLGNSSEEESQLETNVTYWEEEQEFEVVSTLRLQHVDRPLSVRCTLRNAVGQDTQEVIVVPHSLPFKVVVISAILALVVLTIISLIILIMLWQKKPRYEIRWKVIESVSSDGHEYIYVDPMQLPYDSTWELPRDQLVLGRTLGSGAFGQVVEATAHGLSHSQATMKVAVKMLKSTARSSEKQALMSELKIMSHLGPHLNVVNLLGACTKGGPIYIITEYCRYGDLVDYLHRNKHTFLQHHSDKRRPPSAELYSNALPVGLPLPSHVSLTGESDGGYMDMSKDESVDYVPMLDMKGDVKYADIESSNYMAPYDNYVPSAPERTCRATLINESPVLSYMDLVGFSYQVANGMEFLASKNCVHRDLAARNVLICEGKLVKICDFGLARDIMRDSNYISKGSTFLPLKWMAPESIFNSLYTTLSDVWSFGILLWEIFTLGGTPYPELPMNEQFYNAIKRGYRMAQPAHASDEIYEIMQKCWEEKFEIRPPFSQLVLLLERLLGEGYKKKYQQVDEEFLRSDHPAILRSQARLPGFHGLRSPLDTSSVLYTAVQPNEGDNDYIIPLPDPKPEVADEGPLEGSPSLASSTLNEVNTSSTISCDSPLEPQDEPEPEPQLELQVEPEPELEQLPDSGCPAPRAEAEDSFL

PI-3 kinase = experiment: Kinase selectivity: PI-3 kinase; format: biochemical; details: 50 μM concentration
[22] = biological target: E. coli histidine kinase NRII (Escherichia coli, UniProt P0AFB5); experiment: Kinase selectivity: E. coli histidine kinase NRII; format: biochemical; details: 50 μM concentration
Sequence of E. coli histidine kinase NRII (P0AFB5 whole entry): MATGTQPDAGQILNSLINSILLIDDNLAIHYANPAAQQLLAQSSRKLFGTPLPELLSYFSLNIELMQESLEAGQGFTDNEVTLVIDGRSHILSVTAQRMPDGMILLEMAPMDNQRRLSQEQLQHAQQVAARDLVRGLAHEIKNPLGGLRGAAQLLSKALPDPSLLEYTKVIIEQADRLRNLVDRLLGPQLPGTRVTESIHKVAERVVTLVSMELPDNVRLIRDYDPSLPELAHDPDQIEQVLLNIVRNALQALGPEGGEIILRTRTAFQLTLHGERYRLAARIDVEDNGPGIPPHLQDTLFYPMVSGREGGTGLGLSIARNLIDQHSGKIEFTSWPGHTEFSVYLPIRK

RAF = RAF (Homo sapiens, UniProt P04049); experiment: Kinase selectivity: RAF; format: biochemical; details: 50 μM concentration
Sequence of RAF (P04049 whole entry): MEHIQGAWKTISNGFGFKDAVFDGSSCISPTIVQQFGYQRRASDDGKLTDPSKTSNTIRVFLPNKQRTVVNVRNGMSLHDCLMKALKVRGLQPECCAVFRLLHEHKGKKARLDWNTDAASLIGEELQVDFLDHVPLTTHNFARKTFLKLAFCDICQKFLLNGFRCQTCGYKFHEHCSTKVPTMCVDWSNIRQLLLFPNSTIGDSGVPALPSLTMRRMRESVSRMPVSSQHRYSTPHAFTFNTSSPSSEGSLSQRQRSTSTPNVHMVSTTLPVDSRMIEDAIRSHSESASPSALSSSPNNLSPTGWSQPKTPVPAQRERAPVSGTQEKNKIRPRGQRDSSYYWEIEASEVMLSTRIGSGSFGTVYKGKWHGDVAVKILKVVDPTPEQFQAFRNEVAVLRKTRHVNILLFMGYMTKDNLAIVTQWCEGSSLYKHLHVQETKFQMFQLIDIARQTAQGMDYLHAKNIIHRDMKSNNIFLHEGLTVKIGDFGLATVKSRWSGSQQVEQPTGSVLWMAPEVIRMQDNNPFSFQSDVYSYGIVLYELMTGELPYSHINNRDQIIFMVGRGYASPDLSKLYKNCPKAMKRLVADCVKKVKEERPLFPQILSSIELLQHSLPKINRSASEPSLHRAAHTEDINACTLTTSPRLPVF

MEK [23] = biological target: T1, MEK; format: biochemical

SMILES: COc1cccc(-c2cc(=O)c3ccccc3o2)c1N [invention compound, 2-(2-amino-3-methoxyphenyl)-4-oxo-4H-[1]benzopyran]
- IC50 (MAP kinase [1]): 7 µM
- IC50 (MAP kinase [2]; Mus musculus, 3T3-L1 cells stimulated with insulin, read-out: IC50, activation of MAP kinase in whole cells): 3 µM
- activation of insulin stimulated MAP kinase (MAP kinase [2]; murine 3T3-L1 adipocytes, insulin): does inhibit
- IC50 (Balb 3T3): 8 µM
- IC50 (K-Balb 3T3): 10 µM
- effect on insulin stimulated uptake of radiolabeled 2-deoxyglucose (3T3-L1 adipocyte cells [3]): does not affect
- effect on insulin stimulated uptake of radiolabeled 2-deoxyglucose (3T3-L1 adipocyte cells [3]; listed as compound): no effect
- effect on insulin-stimulated synthesis of lipid (3T3-L1 adipocyte cells [4]): does not affect
- effect on insulin-stimulated synthesis of lipid (3T3-L1 adipocyte cells [4]; listed as compound): no effect
- effect on insulin-stimulated synthesis of glycogen (3T3-L1 adipocyte cells [5]): does not affect
- effect on insulin-stimulated synthesis of glycogen (3T3-L1 adipocyte cells [5]; listed as compound): no effect
- IC50 (K-Ras/Balb [6]): 1.5 µM
- IC50 (K-Ras/NRK [7]): 2 µM
- IC50 (RSV/RAT-1 [8]): 60 µM
- IC50 (EGFR/Swiss 3T3 [9]): > 100 µM
- IC50 (K562 [10]): 60 µM
- IC50 (v-Raf/3Y1 [11]): 4.5 µM
- IC50 (K-Ras/Balb [12]): 25 µM
- IC50 (K-Ras/NRK [13]): 40 µM
- IC50 (RSV/RAT-1 [14]): > 100 µM
- IC50 (EGFR/Swiss 3T3 [15]): > 100 µM
- IC50 (K562 [16]): > 100 µM
- IC50 (v-Raf/3Y1 [17]): 50 µM
- enzyme inhibited in the cascade (MEK or MAP kinase) (MEK [18]): inhibiting MEK and not MAP kinase
- inhibition of MAP kinase (MAP kinase [19]): does not appreciably inhibit
- inhibition of Protein kinase C [20]: does not appreciably inhibit
- inhibition of v-Src (v-Src): does not appreciably inhibit
- inhibition of EGFR Tyrosine kinase (EGFR Tyrosine kinase): does not appreciably inhibit
- inhibition of NGFR (trk-A) Tyrosine kinase [21]: does not appreciably inhibit
- inhibition of PDGFRβ Tyrosine kinase (PDGFRβ Tyrosine kinase): does not appreciably inhibit
- inhibition of PI-3 kinase (PI-3 kinase): does not appreciably inhibit
- inhibition of E. coli histidine kinase NRII [22]: does not appreciably inhibit
- inhibition of RAF (RAF): does not appreciably inhibit
- competition with ATP (kinetic analysis) (MEK [23]): not competitive with ATP
